Data published in US20130029923A1, “Materials and Methods for Prevention and Treatment of Viral Infections” (priority 2009, published 2013).

How the values were obtained:
prostaglandin E2 (PGE2) = format: cell-based, human
[1] = test system: influenza virus H9N2 (A/Quail/HK/G1/97); format: cell-based, human influenza virus
[2] = test system: influenza virus H9N2/G1 (A/Quail/HK/G1/97); format: cell-based, human influenza virus
[3] = test system: influenza virus H9N2/G1 (A/Quail/HK/G1/97); format: cell-based, human influenza virus; remark: listed apart in the source
[4] = test system: influenza virus H3N2 (A/H3N2/1174/99); format: cell-based, human influenza virus
[5] = test system: human influenza viruses H1N1 (A/HK/54/98), H9N2 (A/Quail/HK/G1/97), H3N2 (A/H3N2/1174/99); format: cell-based, human influenza virus
[6] = test system: influenza virus H1N1 (A/HK/54/98), oseltamivir-sensitive strain; format: cell-based, human influenza virus
[7] = test system: influenza M1 protein, H9N2/G1 (A/Quail/HK/G1/97); format: cell-based, human influenza virus

COC(=O)CC1(O)C=CC(=O)C=C1 [Compound D1, jacaranone]
PGE2 levels in H9N2/G1-infected macrophages (prostaglandin E2 (PGE2)): suppresses PGE2 levels in a dose-dependent manner
PGE2 levels in non-infected macrophages (prostaglandin E2 (PGE2)): does not cause any changes in PGE2 levels

C[C@@H]1O[C@@H](OC[C@H]2O[C@@H](OCCc3ccc(O)c(O)c3)[C@H](O)[C@@H](O)[C@@H]2OC(=O)/C=C/c2ccc(O)c(O)c2)[C@H](O)[C@H](O)[C@H]1O [Compound A1, forsythoside A]
suppression of virus replication (TCID50) compared with DMSO-treated cells [1]: ~24 fold
virion budding, ultrastructure [2]: slowed or abnormal budding process
Cytotoxicity index (MDCK cells): 1.02
cytotoxicity on MDCK cells (MDCK cells; 100 ug/ml, 48 hours): does not exhibit significant cytotoxicity
increase of cells expressing viral proteins from 6 h.p.i. to 10 h.p.i. [3]: about 15%
percentages of cells expressing viral proteins vs DMSO at 6 h.p.i. [3]: no significant difference
suppression of virus replication (TCID50) compared with DMSO-treated cells [4]: ~12 fold
anti-influenza virus effects in primary human blood macrophages [5]: possesses anti-influenza virus effects
suppression of virus replication (TCID50) compared with DMSO-treated cells [6]: about 15 fold
M1 protein expression level compared to DMSO [7]: lower
relative intensity of M1 (normalized to actin) [7]: 0.39
relative intensity of M1, DMSO-treated over treated cells [7]: more than four fold

CCOC(=O)C1=C[C@@H](OC(CC)CC)[C@H](NC(C)=O)[C@@H](N)C1 [Tamiflu, oseltamivir, reference compound]
suppression of virus (TCID50) compared with diluent (PBS)-treated cells [6]: more than 30 folds
